Experimental data from paper PMC10196118, “Evidence for broad cross-reactivity of the SARS-CoV-2 NSP12-directed CD4^+ T-cell response with pre-primed responses directed against common cold coronaviruses” (Frontiers in Immunology, 2023).

Test system: pre-cultured PBMCs (NSP12-specific T cells)
Assay: IFN-γ ELISpot with single 15-mer peptides after 11–13 days in vitro peptide-pool T-cell expansion
Format: cell-based, human
Conditions: for peptide-specific response, donor HH-N12-18, post COVID-19 / peptide-specific response, donor HH-N12-34, post COVID-19 / peptide-specific response, donor HH-N12-35, post COVID-19 / peptide-specific response, donor HH-N12-36, post COVID-19 / peptide-specific response, donor HH-N12-37, post COVID-19 / peptide-specific T-cell response, donor HH-N12-18, post COVID-19 / peptide-specific T-cell response, donor HH-N12-34, post COVID-19 / peptide-specific T-cell response, donor HH-N12-35, post COVID-19 / peptide-specific T-cell response, donor HH-N12-36, post COVID-19 / peptide-specific T-cell response, donor HH-N12-37, post COVID-19: sample post COVID-19; for peptide-specific response, donor HH-N12-18, post COVID-19 / peptide-specific response, donor HH-N12-18, pre COVID-19 / peptide-specific response, donor HH-N12-34, post COVID-19 / peptide-specific response, donor HH-N12-34, pre COVID-19 / peptide-specific response, donor HH-N12-35, post COVID-19 / peptide-specific response, donor HH-N12-35, pre COVID-19 / peptide-specific response, donor HH-N12-36, post COVID-19 / peptide-specific response, donor HH-N12-36, pre COVID-19 / peptide-specific response, donor HH-N12-37, post COVID-19 / peptide-specific response, donor HH-N12-37, pre COVID-19: single NSP12 15-mer peptides; for peptide-specific response, donor HH-N12-18, pre COVID-19 / peptide-specific response, donor HH-N12-34, pre COVID-19 / peptide-specific response, donor HH-N12-35, pre COVID-19 / peptide-specific response, donor HH-N12-36, pre COVID-19 / peptide-specific response, donor HH-N12-37, pre COVID-19 / peptide-specific T-cell response, donor HH-N12-18, pre COVID-19 / peptide-specific T-cell response, donor HH-N12-34, pre COVID-19 / peptide-specific T-cell response, donor HH-N12-35, pre COVID-19 / peptide-specific T-cell response, donor HH-N12-36, pre COVID-19 / peptide-specific T-cell response, donor HH-N12-37, pre COVID-19: sample pre COVID-19; for peptide-specific T-cell response, donor HH-N12-18, post COVID-19 / peptide-specific T-cell response, donor HH-N12-18, pre COVID-19 / peptide-specific T-cell response, donor HH-N12-34, post COVID-19 / peptide-specific T-cell response, donor HH-N12-34, pre COVID-19 / peptide-specific T-cell response, donor HH-N12-35, post COVID-19 / peptide-specific T-cell response, donor HH-N12-35, pre COVID-19 / peptide-specific T-cell response, donor HH-N12-36, post COVID-19 / peptide-specific T-cell response, donor HH-N12-36, pre COVID-19 / peptide-specific T-cell response, donor HH-N12-37, post COVID-19 / peptide-specific T-cell response, donor HH-N12-37, pre COVID-19: single NSP12 15-mer peptide, 0 = no response

| Substance | peptide-specific response, donor HH-N12-18, post COVID-19 | peptide-specific response, donor HH-N12-18, pre COVID-19 | peptide-specific response, donor HH-N12-34, post COVID-19 | peptide-specific response, donor HH-N12-34, pre COVID-19 | peptide-specific response, donor HH-N12-35, post COVID-19 | peptide-specific response, donor HH-N12-35, pre COVID-19 | peptide-specific response, donor HH-N12-36, post COVID-19 | peptide-specific response, donor HH-N12-36, pre COVID-19 | peptide-specific response, donor HH-N12-37, post COVID-19 | peptide-specific response, donor HH-N12-37, pre COVID-19 | peptide-specific T-cell response, donor HH-N12-18, post COVID-19 | peptide-specific T-cell response, donor HH-N12-18, pre COVID-19 | peptide-specific T-cell response, donor HH-N12-34, post COVID-19 | peptide-specific T-cell response, donor HH-N12-34, pre COVID-19 | peptide-specific T-cell response, donor HH-N12-35, post COVID-19 | peptide-specific T-cell response, donor HH-N12-35, pre COVID-19 | peptide-specific T-cell response, donor HH-N12-36, post COVID-19 | peptide-specific T-cell response, donor HH-N12-36, pre COVID-19 | peptide-specific T-cell response, donor HH-N12-37, post COVID-19 | peptide-specific T-cell response, donor HH-N12-37, pre COVID-19 |
| --- | --- | --- | --- | --- | --- | --- | --- | --- | --- | --- | --- | --- | --- | --- | --- | --- | --- | --- | --- | --- |
| QFCDAMRNAGIVGVL [compound 39] | 0 | 0 | 0 | 0 | 0 | 0 | 0 | 0 | 0 | 0 | – | – | – | – | – | – | – | – | – | – |
| LVLARKHTTCCSLSH [compound 128] | 0 | 0 | 0 | 0 | 0 | 0 | 0 | 0 | 0 | 0 | – | – | – | – | – | – | – | – | – | – |
| VPVVDSYYSLLMPIL [compound 47] | 0.082 | 0 | 0 | 0 | 0.02 | 0 | 0 | 0 | 0 | 0 | – | – | – | – | – | – | – | – | – | – |
| RLYECLYRNRDVDTD [compound 146] | 0 | 0 | 0.023 | 0 | 0 | 0 | 0 | 0 | 0 | 0.02 | – | – | – | – | – | – | – | – | – | – |
| Peptide 110: 15-mer peptide of SARS-CoV-2 NSP12, aa 546-560 | 0 | 0 | 0.023 | 0 | 0 | 0 | 0 | 0 | 0 | 0 | – | – | – | – | – | – | – | – | – | – |
| LTKPYIKWDLLKYDF [compound 53] | 0.021 | 0.02 | 0 | 0 | 0 | 0 | 0 | 0 | 0 | 0 | – | – | – | – | – | – | – | – | – | – |
| FQEKDEDDNLIDSYF [compound 12] | 0 | 0 | 0 | 0 | 0 | 0 | 0 | 0 | 0 | 0 | – | – | – | – | – | – | – | – | – | – |
| DFIQTTPGSGVPVVD [compound 45] | 0 | 0 | 0 | 0.017 | 0 | 0 | 0 | 0 | 0 | 0 | – | – | – | – | – | – | – | – | – | – |
| DAVVCFNSTYASQGL [compound 153] | – | – | – | – | – | – | – | – | – | – | 0 | 0 | 0 | 0 | 0 | 0 | 0 | 0 | 0 | 0 |
| ASQGLVASIKNFKSV [compound 155] | – | – | – | – | – | – | – | – | – | – | 0 | 0 | 0 | 0 | 0 | 0 | 0 | 0 | 0 | 0 |
| DIYNDKVAGFAKFLK [compound 8] | 0 | 0 | 0 | 0 | 0 | 0 | 0 | 0 | 0 | 0 | – | – | – | – | – | – | – | – | – | – |
| IDSYFVVKRHTFSNY [compound 14] | 0 | 0 | 0 | 0 | 0 | 0 | 0 | 0 | 0 | 0 | – | – | – | – | – | – | – | – | – | – |
| VAKHDFFKFRIDGDM [compound 20] | 0 | 0 | 0 | 0 | 0 | 0 | 0 | 0 | 0 | 0 | – | – | – | – | – | – | – | – | – | – |
| TNCCRFQEKDEDDNL [compound 11] | 0 | 0.035 | 0 | 0 | 0 | 0 | 0 | 0 | 0 | 0 | – | – | – | – | – | – | – | – | – | – |
